This note sets out measurements from ChEMBL document CHEMBL3785087, “Synthesis and biological activities of indolizine derivatives as alpha-7 nAChR agonists” (Eur J Med Chem, 2016).

Common to all, as to format: cell-based
The target in test [1] is T1, Neuronal acetylcholine receptor subunit alpha-7 (Homo sapiens, UniProt P36544). In words: Agonist activity at human alpha7 nAChR expressed in xenopus oocytes preincubated for 10 mins followed by acetylcholine addition by patch clamp electrophysiological assay. Background: In patch-clamp work, channel activity is measured electrically.
T1 sequence (P36544 whole entry): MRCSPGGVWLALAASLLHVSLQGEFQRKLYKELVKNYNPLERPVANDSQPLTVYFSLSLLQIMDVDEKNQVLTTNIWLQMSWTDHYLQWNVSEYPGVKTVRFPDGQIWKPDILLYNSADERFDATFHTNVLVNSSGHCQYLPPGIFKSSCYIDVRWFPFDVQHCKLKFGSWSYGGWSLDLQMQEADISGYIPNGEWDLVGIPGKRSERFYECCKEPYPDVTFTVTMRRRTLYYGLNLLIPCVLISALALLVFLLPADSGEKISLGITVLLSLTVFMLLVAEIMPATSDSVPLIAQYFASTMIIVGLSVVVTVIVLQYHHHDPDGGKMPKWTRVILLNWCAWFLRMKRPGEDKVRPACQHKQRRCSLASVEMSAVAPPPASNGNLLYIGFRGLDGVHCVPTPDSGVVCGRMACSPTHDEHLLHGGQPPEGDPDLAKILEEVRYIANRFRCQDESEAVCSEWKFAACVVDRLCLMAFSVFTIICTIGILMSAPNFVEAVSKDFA
For test [2], the target named is T1, Neuronal acetylcholine receptor subunit alpha-7. In words: […] to human alpha7 nAChR expressed in xenopus oocytes preincubated for 10 mins followed by acetylcholine addition by patch clamp electrophysiological assay relative to acetylcholine. Details: concentration or dose not given beside the values.
Test [3] has the same target. In words: Displacement of [3H]-MLA from human alpha7 nAChR expressed in xenopus oocytes in presence of alpha7 nAChR positive allosteric modulator PNU-120596.
Test [4] shares this target. In words: Displacement of [3H]-MLA from human alpha7 nAChR expressed in xenopus oocytes. On the technique in general: Displacement assays read how much labelled ligand stays bound in the presence of the test substance.

The term EC50 denotes the midpoint of the concentration-response curve. For orientation: Ki means a measure of affinity in units of concentration, obtained from inhibition or displacement.

As for `O=C(N[C@H]1CN2CCC1CC2)c1cc2c(Br)cccn2c1`, a half-maximal response in test [1] (EC50) required 4.75 µM. Besides, the Activity in test [2] was determined as 75.9%.
Turning to `CCOC(=O)c1cc(C(=O)c2cccc(F)c2)n2ccc(C(=O)N[C@H]3CN4CCC3CC4)cc12`, the EC50 in test [1] is above 20 µM. Besides, the Activity in test [2] was below 1%.
For `CC(C)(C)c1ccc(-c2cccc3cc(C(=O)N[C@H]4CN5CCC4CC5)cn23)cc1` the same measures were 8.6 µM and 23.9%.
For `CCOC(=O)c1cc(C(=O)c2ccccc2)n2ccc(C(=O)N[C@H]3CN4CCC3CC4)cc12` the same measures were above 20 µM and below 1%.
For `O=C(N[C@H]1CN2CCC1CC2)c1cc2cccc(Cl)c2s1` [ENCENICLINE] the same measures were 0.34 µM and 33.5%.
The molecule `O=C(N[C@H]1CN2CCC1CC2)c1cc(C(=O)c2cccc(Br)c2)n2ccccc12` gave an EC50 in test [1] above 20 µM. The Activity in test [2] is below 1%.
For `O=C(N[C@H]1CN2CCC1CC2)c1cc2cc(Br)ccn2c1` the same measures were 10.5 µM and 34.7%.
For `CCOC(=O)c1cc(C(=O)c2cccc(C(F)(F)F)c2)n2ccc(C(=O)N[C@H]3CN4CCC3CC4)cc12` the same measures were above 20 µM and below 1%.
For `O=C(N[C@H]1CN2CCC1CC2)c1cc2c(F)cccn2c1` the same measures were 2.83 µM and 63.7%.
For `CCOC(=O)c1cc(C(=O)c2cccc(Cl)c2)n2ccc(C(=O)N[C@H]3CN4CCC3CC4)cc12`, the EC50 in test [1] was above 20 µM. In test [2], this molecule displayed an Activity below 1%.
For `CCOC(=O)c1cc(C(=O)c2ccccc2O)n2ccc(C(=O)N[C@H]3CN4CCC3CC4)cc12` the same measures were above 20 µM and below 1%.
For `O=C(N[C@H]1CN2CCC1CC2)c1cc(C(=O)c2ccccc2)n2ccccc12` the same measures were above 20 µM and below 1%.
For `O=C(N[C@H]1CN2CCC1CC2)c1cc2cccc(Cl)n2c1` the same measures were 2.49 µM and 63.2%.
For `Cc1cccc(-c2ccc3cc(C(=O)N[C@H]4CN5CCC4CC5)cn3c2)c1`, the EC50 in test [1] is above 20 µM. In test [2], this molecule had an Activity below 1%.
The like results for `O=C(N[C@H]1CN2CCC1CC2)c1cc2cccc(-c3ccsc3)n2c1` were, in that order, 3.54 µM and 40.8%.
For `O=C(N[C@H]1CN2CCC1CC2)c1cc(C(=O)c2ccccc2Br)n2ccccc12` the same measures were above 20 µM and below 1%.
For `O=C(N[C@H]1CN2CCC1CC2)c1cc2ccc(-c3ccsc3)cn2c1` the same measures were above 20 µM and below 1%.
For `O=C(N[C@H]1CN2CCC1CC2)c1cc2cccc(-c3ccccc3)n2c1`, in test [1], the EC50 was determined as 3.98 µM. The Activity in test [2] turned out to be 59.8%.
For `CN(C)c1cccc(-c2cccc3cc(C(=O)N[C@H]4CN5CCC4CC5)cn23)c1` the same measures were above 20 µM and below 1%.
The like results for `O=C(N[C@H]1CN2CCC1CC2)c1cc(C(=O)c2ccc3ccccc3c2)n2ccccc12` were, in that order, above 20 µM and below 1%.
The like results for `CCOC(=O)c1cc(C(=O)c2ccc(F)cc2)n2ccc(C(=O)N[C@H]3CN4CCC3CC4)cc12` were, in that order, above 20 µM and below 1%.
In turn, `O=C(N[C@H]1CN2CCC1CC2)c1cc2ccc(Br)cn2c1` displayed an EC50 in test [1] of 9.63 µM. The molecule also displayed an Activity in test [2] of 86.3%.
The like results for `O=C(N[C@H]1CN2CCC1CC2)c1cc2ccc(-c3ccccc3)cn2c1` were, in that order, above 20 µM and below 1%.
For `Cc1cccc2cc(C(=O)N[C@H]3CN4CCC3CC4)cn12` the same measures were 2.14 µM and 66%.
`O=C(N[C@H]1CN2CCC1CC2)c1cc2cccc(-c3ccc(-c4ccccc4)cc3)n2c1` registered a concentration giving a half-maximal response (EC50) in test [1] of 14.1 µM. In test [2], the Activity is 18%.
As to `CCOC(=O)c1cc(C(=O)c2ccc(Cl)c(Cl)c2)n2ccc(C(=O)N[C@H]3CN4CCC3CC4)cc12`, the concentration for a half-maximal effect (EC50) in test [1] was above 20 µM. For the same molecule, the Activity in test [2] was below 1%.
On to `O=C(N[C@H]1CN2CCC1CC2)c1cc2ccc(Cl)cn2c1`, for which the half-maximal effective concentration (EC50) in test [1] is above 20 µM. For the same molecule, the Activity in test [2] is below 1%.
The like results for `Cc1nc2ccc(F)cn2c1C(=O)N[C@H]1CN2CCC1CC2` were, in that order, above 20 µM and below 1%.
The like results for `O=C(N[C@H]1CN2CCC1CC2)c1cc2ccc(-c3cccs3)cn2c1` were, in that order, above 20 µM and below 1%.
For `O=C(N[C@H]1CN2CCC1CC2)c1cc(C(=O)c2ccccc2F)n2ccccc12` the same measures were above 20 µM and below 1%.
Take `Cc1cccc(-c2cccc3cc(C(=O)N[C@H]4CN5CCC4CC5)cn23)c1`: the EC50 in test [1] was determined as 3.99 µM. In test [2], the Activity is 63.9%.
For `CC(C)(C)c1ccc(-c2ccc3cc(C(=O)N[C@H]4CN5CCC4CC5)cn3c2)cc1` the same measures were above 20 µM and below 1%.
The like results for `Cc1nc2c(Br)cccn2c1C(=O)N[C@H]1CN2CCC1CC2` were, in that order, above 20 µM and below 1%.
The like results for `CCOC(=O)c1cc(C(=O)c2ccccc2)n2cccc(C(=O)N[C@H]3CN4CCC3CC4)c12` were, in that order, above 20 µM and below 1%.
For the molecule `O=C(N[C@H]1CN2CCC1CC2)c1cc(C(=O)c2ccc(-c3ccccc3)cc2)n2ccccc12`, the concentration giving a half-maximal response (EC50) in test [1] is above 20 µM. Moreover, the Activity in test [2] is below 1%.
For the molecule `O=C(N[C@H]1CN2CCC1CC2)c1cc(C(=O)c2ccc(Cl)cc2)n2ccccc12`, the EC50 in test [1] is above 20 µM. The same molecule had an Activity in test [2] below 1%.
For `O=C(N[C@H]1CN2CCC1CC2)c1cc(C(=O)c2cccc(Cl)c2)n2ccccc12` the same measures were above 20 µM and below 1%.
Take `CCOC(=O)c1cc(C(=O)c2ccccc2)n2cc(C(=O)N[C@H]3CN4CCC3CC4)ccc12`: the EC50 in test [1] is above 20 µM. The molecule also gave an Activity in test [2] below 1%.
`O=C(N[C@H]1CN2CCC1CC2)c1cc2cc(-c3ccccc3)ccn2c1` registered a concentration for a half-maximal effect (EC50) in test [1] above 20 µM. For the same molecule, the Activity in test [2] was below 1%.
The like results for `Cc1ccccc1-c1cccc2cc(C(=O)N[C@H]3CN4CCC3CC4)cn12` were, in that order, 4.64 µM and 17.6%.
For the molecule `O=C(N[C@H]1CN2CCC1CC2)c1cnc2ccccn12`, in test [1], the EC50 was above 20 µM. The Activity in test [2] was below 1%.
For the molecule `O=C(N[C@H]1CN2CCC1CC2)c1cc2cccc(Br)n2c1`, the Activity in test [2] worked out at 64.3%. In addition, the Ki in test [3] came to 0.0936 µM; in test [4], 0.0149 µM.
`O=C(N[C@H]1CN2CCC1CC2)c1cc2cc(Cl)ccn2c1` showed an EC50 in test [1] of 6.92 µM. Also, the Activity in test [2] is 19.6%.
Molecule `Cc1ccccc1-c1ccc2cc(C(=O)N[C@H]3CN4CCC3CC4)cn2c1` showed a half-maximal effective concentration (EC50) in test [1] above 20 µM. Further, in test [2], the Activity is below 1%.
As to `O=C(N[C@H]1CN2CCC1CC2)c1cc2ccccn2c1`, the EC50 in test [1] is 8.38 µM. The molecule further displayed an Activity in test [2] of 57.1%.
For `O=C(N[C@H]1CN2CCC1CC2)c1cc2c(-c3ccccc3)cccn2c1` the same measures were above 20 µM and below 1%.
For `CCOC(=O)c1cc(C(=O)c2cccc([N+](=O)[O-])c2)n2ccc(C(=O)N[C@H]3CN4CCC3CC4)cc12` the same measures were above 20 µM and below 1%.
For `O=C(N[C@H]1CN2CCC1CC2)c1cc2c(Cl)cccn2c1` the same measures were above 20 µM and below 1%.
